The text below walks through data of BindingDB's records for doi:10.1016/j.bmcl.2006.03.030 (Gsk, 2006).

Chain of Transient receptor potential cation channel subfamily V member 1 (Q8NER1 whole entry): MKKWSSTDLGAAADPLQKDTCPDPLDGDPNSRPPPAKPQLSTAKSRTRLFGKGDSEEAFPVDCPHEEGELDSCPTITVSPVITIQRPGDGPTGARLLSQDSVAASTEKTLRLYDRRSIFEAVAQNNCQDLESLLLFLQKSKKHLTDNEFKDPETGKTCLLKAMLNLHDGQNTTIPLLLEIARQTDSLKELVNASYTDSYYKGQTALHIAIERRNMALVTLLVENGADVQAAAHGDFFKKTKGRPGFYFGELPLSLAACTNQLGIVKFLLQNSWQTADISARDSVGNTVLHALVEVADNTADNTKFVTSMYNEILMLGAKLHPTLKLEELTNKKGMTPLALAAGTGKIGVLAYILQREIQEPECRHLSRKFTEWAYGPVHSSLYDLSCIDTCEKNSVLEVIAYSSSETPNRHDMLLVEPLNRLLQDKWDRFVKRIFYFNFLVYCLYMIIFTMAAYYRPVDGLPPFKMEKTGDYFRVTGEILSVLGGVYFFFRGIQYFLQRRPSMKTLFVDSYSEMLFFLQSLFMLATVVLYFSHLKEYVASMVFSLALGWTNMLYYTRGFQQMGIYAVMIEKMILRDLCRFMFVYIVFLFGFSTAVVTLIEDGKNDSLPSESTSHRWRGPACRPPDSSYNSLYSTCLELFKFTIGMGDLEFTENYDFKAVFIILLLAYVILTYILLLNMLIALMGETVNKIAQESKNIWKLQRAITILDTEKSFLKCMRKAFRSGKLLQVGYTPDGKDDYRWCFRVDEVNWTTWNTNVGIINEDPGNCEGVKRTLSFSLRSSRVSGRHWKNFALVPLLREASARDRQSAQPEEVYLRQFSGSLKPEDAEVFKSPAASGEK

This experiment deals with Transient receptor potential cation channel subfamily V member 1 (Homo sapiens, UniProt Q8NER1). In words: FLIPR (Fluorescence Imaging Plate Reader)-Based Ca2+ Assay. The note with it: pH 7.2; 25 °C. As to the method:
One day before the assay was performed, human TRPV1 expressed in 1321N1 astrocytoma cells were plated onto 96-well assay plates and grown until 2.5 h before the assay, and the cells were loaded with the Ca2+ reporter dye Fluo3-AM for 2 h at room temperature. After this, the cells were washed, and continuously being incubated for 30 min with medium containing test compounds at a range of different concentrations. The plates were then placed into a FLIPR to monitor fluorescence (excitation @ 488 nm and emission @540 nm) before and after the addition of capsaicin, antagonist potency was determined versus an EC80 concentration of capsaicin that was determined empirically on the day of the experiment.
As usually defined, the EC50 is the concentration giving half of the maximal effect. Low values mean an effect from little substance, high ones a need for much substance. With `Cc1ccc2c(c1)CCCN2CCNC(=O)Nc1ccccc1Br` [3-(2-bromophenyl)-1-[2-(6-methyl-1,2,3,4-tetrahydroquinolin-1-yl)ethyl]urea], the EC50 worked out at 40 nM. In other words, the double-digit nanomolar range. As to `O=C(NCCN1CCc2c(F)cccc21)Nc1ccccc1Br` [1-(2-bromophenyl)-3-[2-(4-fluoro-2,3-dihydro-1H-indol-1-yl)ethyl]urea], a half-maximal response (EC50) required 40 nM.

Compound `O=C(NCCN1CCc2cc(F)ccc21)Nc1ccccc1Br` [1-(2-bromophenyl)-3-[2-(5-fluoro-2,3-dihydro-1H-indol-1-yl)ethyl]urea] came in with an EC50 of 79 nM. Take `Cc1ccc(N2CC[C@@H](NC(=O)Nc3ccccc3Br)C2)nc1` [1-(2-bromophenyl)-3-[(3R)-1-(5-methylpyridin-2-yl)pyrrolidin-3-yl]urea]: the EC50 is over 200 nM. The compound `N#Cc1ccc(N2CC[C@@H](NC(=O)Nc3ccccc3Br)C2)nc1` [1-(2-bromophenyl)-3-[(3R)-1-(5-cyanopyridin-2-yl)pyrrolidin-3-yl]urea] gave a concentration giving a half-maximal response (EC50) of 200 nM.

For `O=C(Nc1ccccc1Br)N[C@@H]1CCN(c2ccccn2)C1` [1-(2-bromophenyl)-3-[(3R)-1-(pyridin-2-yl)pyrrolidin-3-yl]urea], the EC50 was over 251 nM. For `O=C(Nc1ccccc1Br)N[C@@H]1CCN(c2ccc(Br)cn2)C1` [1-(2-bromophenyl)-3-[(3R)-1-(5-bromopyridin-2-yl)pyrrolidin-3-yl]urea], the response was half-maximal at 63 nM (EC50). Compound `Cc1cccc(N2CC[C@H](NC(=O)Nc3ccccc3Br)C2)c1` [1-(2-bromophenyl)-3-[(3S)-1-(3-methylphenyl)pyrrolidin-3-yl]urea] yielded an EC50 of over 158 nM.

`O=C(Nc1ccccc1Br)N[C@@H]1CCN(c2cccc(C(F)(F)F)n2)C1` [1-(2-bromophenyl)-3-[(3R)-1-[6-(trifluoromethyl)pyridin-2-yl]pyrrolidin-3-yl]urea] displayed a 50% effective concentration (EC50) of 63 nM. In turn, `O=C(Nc1ccccc1Br)N[C@@H]1CCN(c2cc(C(F)(F)F)ccn2)C1` [1-(2-bromophenyl)-3-[(3R)-1-[4-(trifluoromethyl)pyridin-2-yl]pyrrolidin-3-yl]urea] came in with an EC50 of 126 nM. This EC50 is about 2-fold higher than that of the compound before. Compound `O=C(Nc1ccccc1Br)N[C@@H]1CCN(c2ccc(F)c(F)c2)C1` [1-(2-bromophenyl)-3-[(3R)-1-(3,4-difluorophenyl)pyrrolidin-3-yl]urea] showed an EC50 of 8 nM. As for `O=C(Nc1ccccc1Br)N[C@@H]1CCN(c2ccc(Cl)cn2)C1` [1-(2-bromophenyl)-3-[(3R)-1-(5-chloropyridin-2-yl)pyrrolidin-3-yl]urea], the concentration for a half-maximal effect (EC50) was determined as 50 nM. Against the preceding compound, the EC50 is about 6.2-fold higher. As for `Cc1cccc2c1CCN2CCNC(=O)Nc1ccccc1Br` [1-(2-bromophenyl)-3-[2-(4-methyl-2,3-dihydro-1H-indol-1-yl)ethyl]urea], a half-maximal response (EC50) required 40 nM. Regarding `O=C(Nc1ccccc1Br)N[C@@H]1CCN(c2ccc(C(F)(F)F)cn2)C1` [1-(2-bromophenyl)-3-[(3R)-1-[5-(trifluoromethyl)pyridin-2-yl]pyrrolidin-3-yl]urea], the response was half-maximal at 32 nM (EC50). Turning to `O=C(Nc1ccccc1Br)N[C@@H]1CCN(c2ncccc2C(F)(F)F)C1` [1-(2-bromophenyl)-3-[(3R)-1-[3-(trifluoromethyl)pyridin-2-yl]pyrrolidin-3-yl]urea], it took 79 nM to reach a half-maximal effect (EC50). For the compound `O=C(NCCN1CCc2ccccc21)Nc1ccccc1Br` [1-(2-bromophenyl)-3-[2-(2,3-dihydro-1H-indol-1-yl)ethyl]urea], a half-maximal effect (EC50) was put at 158 nM.

`Cc1cccc(N2CC[C@@H](NC(=O)Nc3ccccc3Br)C2)c1` [1-(2-bromophenyl)-3-[(3R)-1-(3-methylphenyl)pyrrolidin-3-yl]urea] showed an EC50 of 20 nM.

Compound `Cc1ccc2c(c1)CCN2CCNC(=O)Nc1ccccc1Br` [1-(2-bromophenyl)-3-[2-(5-methyl-2,3-dihydro-1H-indol-1-yl)ethyl]urea] returned a concentration giving a half-maximal response (EC50) of 50 nM.

For `O=C(Nc1ccccc1Br)N[C@@H]1CCN(c2cccc(F)c2)C1` [1-(2-bromophenyl)-3-[(3R)-1-(3-fluorophenyl)pyrrolidin-3-yl]urea], the EC50 was 16 nM. Consider `Cc1ccc(N2CC[C@@H](NC(=O)Nc3ccccc3Br)C2)cc1F` [1-(2-bromophenyl)-3-[(3R)-1-(3-fluoro-4-methylphenyl)pyrrolidin-3-yl]urea], for which the midpoint of the response, the EC50, lay at 5 nM.
